# Reference: US6825170B2, “6-O-acyl ketolide antibacterials” (Ortho-McNeil Pharmaceutical, Inc., priority 2001, dated 2004)
# Assays:
# Experiment in all cases: MIC, microdilution broth method (NCCLS)
# Assay type in all cases: cell-based
# Conditions in all cases: 35° C., 16-20 hours
# [1] = tested on: E. faecalis ATCC29212
# Description: (§1) Minimal inhibitory concentration (MIC) has been an indicator of in vitro antibacterial activity widely used in the art. The in vitro antimicrobial activity of the compounds was determined by the microdilution broth method following the test method from the National Committee for Clinical Laboratory Standards (NCCLS). This method is described in the NCCLS Document M7-A4, Vol.17, No.2, “Methods for Dilution Antimicrobial Susceptibility Test for Bacteria that Grow Aerobically—Fourth Edition”, which is incorporated herein by reference.
# (§2) In this method two-fold serial dilutions of drug in cation adjusted Mueller-Hinton broth are added to wells in microdilution trays. The test organisms are prepared by adjusting the turbidity of actively growing broth cultures so that the final concentration of test organism after it is added to the wells is approximately 5×10^4 CFU/well.
# (§3) Following inoculation of the microdilution trays, the trays are incubated at 35° C. for 16-20 hours and then read. […] The amount of growth in the wells containing the test compound is compared with the amount of growth in the growth-control wells (no test compound) used in each tray. As set forth in Table 1, compounds of the present invention were tested against a variety of Gram positive and Gram negative pathogenic bacteria resulting in a range of activities depending on the organism tested.
# [2] = tested on: H. influenzae ATCC49247
# Description: as §1, §2, §3
# [3] = tested on: S. aureus ATCC29213
# Description: as §1, §2, §3
# [4] = tested on: S. pneumoniae ATCC49619
# Description: as §1, §2, §3
SMILES,MIC (C: E. faecalis ATCC29212) [1] [µg/mL],MIC (E: H. influenzae ATCC49247) [2] [µg/mL],MIC (B: S. aureus ATCC29213) [3] [µg/mL],MIC (D: S. pneumoniae ATCC49619) [4]
CC[C@H]1OC(=O)[C@H](C)C(=O)[C@H](C)[C@@H](O[C@@H]2O[C@H](C)C[C@H](N(C)C)[C@H]2O)[C@](C)(OC(=O)NN=Cc2ccc(-c3ncccn3)cc2)C[C@@H](C)C(=O)[C@H](C)[C@H]2NC(=O)O[C@@]21C [Compound 825],0.5,16,4,0.12 µg/mL
CC[C@H]1OC(=O)[C@H](C)C(=O)[C@H](C)[C@@H](O[C@@H]2O[C@H](C)C[C@H](N(C)C)[C@H]2O)[C@](C)(OC(=O)NNS(=O)(=O)c2ccc(-n3cccn3)cc2)C[C@@H](C)C(=O)[C@H](C)[C@H]2NC(=O)O[C@@]21C [Compound 811],0.5,4,2,0.06 µg/mL
CC[C@H]1OC(=O)[C@H](C)C(=O)[C@H](C)[C@@H](O[C@@H]2O[C@H](C)C[C@H](N(C)C)[C@H]2O)[C@](C)(OC(=O)CCCc2ccccc2)C[C@@H](C)C(=O)[C@H](C)[C@H]2NC(=O)O[C@@]21C [Compound 844],0.12,4,0.5,0.03 µg/mL
CC[C@H]1OC(=O)[C@H](C)C(=O)[C@H](C)[C@@H](O[C@@H]2O[C@H](C)C[C@H](N(C)C)[C@H]2O)[C@](C)(OC(=O)n2ccc(C(=N)Cc3ccccc3)c2)C[C@@H](C)C(=O)[C@H](C)[C@H]2NC(=O)O[C@@]21C [Compound 845],>16,>16,>16,4 µg/mL
CCC1OC(=O)C(C)C(=O)C(C)C(OC2OC(C)CC(N(C)C)C2O)C(C)(OC(=O)OCC=Cc2ccc(-c3cccs3)s2)CC(C)C(=O)C(C)C2NC(=O)OC12C (centres unmarked) [Compound 73],1,16,2,0.25 µg/mL
CCC1OC(=O)C(C)C(=O)C(C)C(OC2OC(C)CC(N(C)C)C2O)C(C)(OC(=O)OCC=Cc2cn(-c3ncccn3)cn2)CC(C)C(=O)C(C)C2NC(=O)OC12C (centres unmarked) [Compound 34],0.12,1,0.25,0.03 µg/mL
CCC1OC(=O)C(C)C(=O)C(C)C(OC2OC(C)CC(N(C)C)C2O)C(C)(OC(=O)OCC=C(F)c2ccc(-c3ncccn3)cc2)CC(C)C(=O)C(C)C2NC(=O)OC12C (centres unmarked) [Compound 224],0.06,2,0.12,≦0.015 μg/mL
CCC1OC(=O)C(C)C(=O)C(C)C(OC2OC(C)CC(N(C)C)C2O)C(C)(OC(=O)OCC=Cc2ccc(-c3ccc(C)nn3)cc2)CC(C)C(=O)C(C)C2NC(=O)OC12C (centres unmarked) [Compound 61],0.12,1,0.12,0.03 µg/mL
CC[C@H]1OC(=O)[C@H](C)C(=O)[C@H](C)[C@@H](O[C@@H]2O[C@H](C)C[C@H](N(C)C)[C@H]2O)[C@](C)(OC(=O)N(C)NCCc2ccc(-c3cnccn3)cc2)C[C@@H](C)C(=O)[C@H](C)[C@H]2NC(=O)O[C@@]21C [Compound 820],0.25,8,1,0.06 µg/mL
CCC1OC(=O)C(C)C(=O)C(C)C(OC2OC(C)CC(N(C)C)C2O)C(C)(OC(=O)OCC=Cc2nc3ccccc3n2C)CC(C)C(=O)C(C)C2NC(=O)OC12C (centres unmarked) [Compound 55],0.12,1,0.25,0.03 µg/mL
CCC1OC(=O)C(C)C(=O)C(C)C(OC2OC(C)CC(N(C)C)C2O)C(C)(OC(=O)OCC=Cc2cnc(-c3ccccc3)nc2)CC(C)C(=O)C(C)C2NC(=O)OC12C (centres unmarked) [Compound 72],0.06,2,0.25,0.03 µg/mL
CCC1OC(=O)C(C)C(=O)C(C)C(OC2OC(C)CC(N(C)C)C2O)C(C)(OC(=O)n2ccc(C(=N)CCCc3ccccc3)c2)CC(C)C(=O)C(C)C2NC(=O)OC12C (centres unmarked) [Compound 846],1,2,8,0.25 µg/mL
CC[C@H]1OC(=O)[C@H](C)C(=O)[C@H](C)[C@@H](O[C@@H]2O[C@H](C)C[C@H](N(C)C)[C@H]2O)[C@](C)(OC(=O)SCc2cnc3ccccc3c2)C[C@@H](C)C(=O)[C@H](C)[C@H]2NC(=O)O[C@@]21C [Compound 838],0.12,1,0.25,0.06 µg/mL
CCC1OC(=O)C(C)C(=O)C(C)C(OC2OC(C)CC(N(C)C)C2O)C(C)(OC(=O)OCC=Cc2ccc(-c3ncccn3)s2)CC(C)C(=O)C(C)C2NC(=O)OC12C (centres unmarked) [Compound 64],0.06,1,0.12,0.03 µg/mL
CCC1OC(=O)C(C)C(=O)C(C)C(OC2OC(C)CC(N(C)C)C2O)C(C)(OC(=O)OCC=Cc2ccc(-n3cncn3)c(F)c2)CC(C)C(=O)C(C)C2NC(=O)OC12C (centres unmarked) [Compound 31],0.06,1,0.12,0.03 µg/mL
CCC1OC(=O)C(C)C(=O)C(C)C(OC2OC(C)CC(N(C)C)C2O)C(C)(OC(=O)NOCC#Cc2ccc(-c3cnccn3)cc2)CC(C)C(=O)C(C)C2NC(=O)OC12C (centres unmarked) [Compound 603],0.12,2,0.25,0.03 µg/mL
CC[C@H]1OC(=O)[C@H](C)C(=O)[C@H](C)[C@@H](O[C@@H]2O[C@H](C)C[C@H](N(C)C)[C@H]2O)[C@](C)(OC(=O)SCc2ccccc2)C[C@@H](C)C(=O)[C@H](C)[C@H]2NC(=O)O[C@@]21C [Compound 831],0.25,8,2,0.06 µg/mL
CC[C@H]1OC(=O)[C@H](C)C(=O)[C@H](C)[C@@H](O[C@@H]2O[C@H](C)C[C@H](N(C)C)[C@H]2O)[C@](C)(OC(=O)N(C)NCc2ccc(-c3ccccn3)cc2)C[C@@H](C)C(=O)[C@H](C)[C@H]2NC(=O)O[C@@]21C [Compound 818],0.25,8,4,0.06 µg/mL
CC[C@H]1OC(=O)[C@H](C)C(=O)[C@H](C)[C@@H](O[C@@H]2O[C@H](C)C[C@H](N(C)C)[C@H]2O)[C@](C)(OC(=O)NNC(=O)N(C)c2ccccc2)C[C@@H](C)C(=O)[C@H](C)[C@H]2NC(=O)O[C@@]21C [Compound 815],1,16,4,0.25 µg/mL
CC[C@H]1OC(=O)[C@H](C)C(=O)[C@H](C)[C@@H](O[C@@H]2O[C@H](C)C[C@H](N(C)C)[C@H]2O)[C@](C)(OC(=O)N(C)N(C)CCc2ccc(-c3cnccn3)cc2)C[C@@H](C)C(=O)[C@H](C)[C@H]2NC(=O)O[C@@]21C [Compound 821],0.5,16,2,0.12 µg/mL
